≈ marks a conversion by molar mass, not a printed value. Like-named read-outs stand apart in the source and are kept apart here.
Legend:
[1] = tested on: Mycobacterium tuberculosis H37Ra; assay: Antimycobacterial susceptibility assay (MIC determination); assay type: cell-based; details: 168 h, 7 days, 37 °C, alamarBlue
Procedure: At log phase growth, a culture sample (10 mL) was centrifuged at 15,000 rpm/20 min using a bench-top centrifuge (MPW-65R, MPW Med Instruments, Poland). Following removal of the supernatant, the pellet was washed in fresh Middlebrook 7H9GC broth and re-suspended in fresh, ODAC-supplemented MB (10 mL). The turbidity was adjusted to match McFarland standard No. 1 (3 × 10^8 CFU) with MB broth. A further 1:20 dilution of the culture was then performed in MB broth. The antimicrobial susceptibility of M. tuberculosis was investigated in a 96-well plate format. In these experiments, sterile deionised water (300 µl) was added to all outer-perimeter wells of the plates to minimize evaporation of the medium in the test wells during incubation. Each evaluated compound (100 µL) was incubated with M. tuberculosis (100 µl). Dilutions of each compound were prepared in duplicate. For all synthesized compounds, final concentrations ranged from 1000 μg/mL to 8 μg/mL. All compounds were dissolved in DMSO, and subsequent dilutions were made in supplemented MB. […] Following incubation, 10% of alamarBlue (Difco, Lawrence, KS, USA) was mixed into each well, and readings at 570 nm and 600 nm were taken, initially for background subtraction and subsequently after 24 h reincubation. […] For non-interfering compounds, a blue colour in the well was interpreted as the absence of growth, and a pink colour was scored as growth.

[2] = tested on: Mycobacterium marinum CAMP 5644; assay: as above; assay type: cell-based; details: Mycobacterium marinum, CAMP5644, 504 h
Procedure: The broth dilution micro-method in Middlebrook 7H9 medium (Difco, Lawrence, KS, USA) supplemented with ADC Enrichment (Becton, Dickinson and Comp.) was used to determine MIC as previously described. […] Bacterial inocula were prepared by transferring colonies from culture to sterile water. The cell density was adjusted to 0.5 McFarland units using a densitometer (Densi-La-Meter, LIAP, Riga, Latvia). The final inoculum was made by 1:1000 dilution of the suspension with sterile water. Drug-free controls, sterility controls and controls consisted of medium and DMSO (Sigma-Aldrich, St. Louis, MO, USA) alone were included. […] Ciprofloxacin (CIP), rifampicin (RIF) and isoniazid (INH) (Sigma-Aldrich, St. Louis, MO, USA) were used as the standards.

[3] = tested on: Capan-1 (pancreatic adenocarcinoma); assay: Antiproliferative screening (cytostatic activity); assay type: cell-based; details: Homo sapiens, CAPAN-1, 72 h, read-out: IC50 Capan-1
Procedure: (§1) All human tumor cell lines were acquired from the American Type Culture Collection (ATCC, Manassas, VA, USA), except for the DND-41 cell line which was purchased from the Deutsche Sammlung von Mikroorganismen und Zellkulturen (DSMZ Leibniz-Institut, Braunschweig, Germany) and the Hap1 cell line which was purchased from Horizon Discovery (Waterbeach, UK). […] All media were supplemented with 10% FBS (HyClone, GE Healthcare Life Sciences, USA). […] After overnight incubation, cells were treated with test compounds at four different concentrations ranging from 100 to 0.8 µM. […] Images were taken every 3 h, with one field image per well under 10× magnification. All compounds were tested with duplicate data points and averaged.

[4] = tested on: HCT-116 (colorectal carcinoma); assay: Antiproliferative screening (cytostatic activity); assay type: cell-based; details: Homo sapiens, HCT-116, 72 h, read-out: IC50 HCT-116
Procedure: as §1

[5] = tested on: K-562 (chronic myeloid leukemia); assay: Antiproliferative screening (cytostatic activity); assay type: cell-based; details: Homo sapiens, K562, 72 h, read-out: IC50 K-562
Procedure: as §1

MM.1S (multiple myeloma) = assay: Antiproliferative screening (cytostatic activity); assay type: cell-based; details: Homo sapiens, MM1.S, 72 h, read-out: IC50 MM.1S
Procedure: as §1

[6] = tested on: NCI-H460 (lung carcinoma); assay: Antiproliferative screening (cytostatic activity); assay type: cell-based; details: Homo sapiens, NCI-H460, 72 h, read-out: IC50 NCI-H460
Procedure: as §1

[7] = tested on: Z-138 (non-Hodgkin lymphoma); assay: Antiproliferative screening (cytostatic activity); assay type: cell-based; details: Homo sapiens, Z-138, 72 h, read-out: IC50 Z-138
Procedure: as §1

[8] = tested on: HL-60 (acute myeloid leukemia); assay: Antiproliferative screening (cytostatic activity); assay type: cell-based; details: Homo sapiens, HL-60, 72 h, read-out: IC50 HL-60
Procedure: (§2) Cytostatic activity was evaluated in vitro on nine different types of human tumor cell lines: Capan-1, Hap1, HCT-116, and NCI-H460, as well as hematological tumors such as DND-41, HL-60, K-562, MM.1S and Z-138 as described previously. All human tumor cell lines were acquired from the American Type Culture Collection (ATCC, Manassas, VA, USA), except for the DND-41 cell line which was purchased from the Deutsche Sammlung von Mikroorganismen und Zellkulturen (DSMZ Leibniz-Institut, Braunschweig, Germany) and the Hap1 cell line which was purchased from Horizon Discovery (Waterbeach, UK). Capan-1, Hap1, HL-60, K-562, Z-138, MM.1S and DND-41 were cultured in Iscove′s Modified Dulbecco′s Medium (IMDM, Gibco Life Technologies, Gaithersburg, MD, USA), HCT-116 were grown in McCoy′s 5A Medium (Gibco Life Technologies) and NCI-H460 were cultured in RPMI (Gibco Life Technologies). All media were supplemented with 10% FBS (HyClone, GE Healthcare Life Sciences, USA). Adherent cell lines HCT-116, Hap1, NCI-H460, and Capan-1 cells were seeded at a density between 400 and 1250 cells per well, in 384-well, black-walled, clear-bottomed tissue culture plates (Greiner Bio-One, Kremsmünster, Germany). After overnight incubation, cells were treated with test compounds at four different concentrations ranging from 100 to 0.8 µM. Suspension cell lines HL-60, K-562, Z-138, MM.1S, and DND-41 were seeded at densities ranging from 3000 to 10,000 cells per well in 384-well, black-walled, clear-bottomed tissue culture plates containing test compounds at the same four concentrations. The plates were incubated and monitored at 37 °C for 72 h in an IncuCyte (Essen BioScience Inc., Ann Arbor, MI, USA) for real-time imaging. Images were taken every 3 h, with one field image per well under 10× magnification. All compounds were tested with duplicate data points and averaged. […]

[9] = tested on: Hap1 (chronic myeloid leukemia); assay: Antiproliferative screening (cytostatic activity); assay type: cell-based; details: Homo sapiens, HAP1, 72 h, read-out: IC50 Hap1
Procedure: as §2

[10] = tested on: DND-41 (acute lymphoblastic leukemia); assay: Antiproliferative screening (cytostatic activity); assay type: cell-based, human; details: Homo sapiens, DND41, 72 h, 72 h, read-out: IC50 DND-41
Procedure: as §2

[11] = DXT and STS values in nM (footnote)

Which results are given for `O=C(O)c1cn(C2CC2)c2cc(N3CCNCC3)c(F)cc2c1=O` [CIP, ciprofloxacin, reference compound]?
MIC [1]: 16 µg/mL (≈ 48.3 µM); MIC [2]: 0.3 µg/mL (≈ 0.905 µM)

For `COc1cc(NC(C)CCCNC(=O)CCC(=O)Nc2cccc(F)c2)c2ncccc2c1` (centres unmarked) [Compound 5a, N-(3-Fluorophenyl)-N′-{4-[(6-methoxyquinolin-8-yl)amino]pentyl}butanediamide], which melting point is on record?
The melting point was 140 to 142 °C.

For `COc1cc(NC(C)CCCNC(=O)CCC(=O)Nc2ccc(F)cc2)c2ncccc2c1` (centres unmarked) [Compound 5b, N-(4-Fluorophenyl)-N′-{4-[(6-methoxyquinolin-8-yl)amino]pentyl}butanediamide], which melting point is on record?
The melting point was 118 to 120 °C.

For `COc1cc(NC(C)CCCNC(=O)CCC(=O)Nc2cccc(Cl)c2)c2ncccc2c1` (centres unmarked) [Compound 5c, N-(3-Chlorophenyl)-N′-{4-[(6-methoxyquinolin-8-yl)amino]pentyl}butanediamide], which melting point is on record?
The melting point was 156 to 158 °C.

With `COc1cc(NC(C)CCCNC(=O)CCC(=O)Nc2ccc(Cl)cc2)c2ncccc2c1` (centres unmarked) [Compound 5d, N-(4-Chlorophenyl)-N′-{4-[(6-methoxyquinolin-8-yl)amino]pentyl}butanediamide] as the molecule, how does the melting point read?
Its melting point is 152 to 153 °C.

Which melting point does the source give for `COc1cc(NC(C)CCCNC(=O)CCC(=O)Nc2cccc(C(F)(F)F)c2)c2ncccc2c1` (centres unmarked) [Compound 5e, N′-{4-[(6-Methoxyquinolin-8-yl)amino]pentyl}-N-[3-(trifluoromethyl)phenyl]butanediamide] here?
The melting point was 146 to 149 °C.

Which melting point does the source give for `COc1cc(NC(C)CCCNC(=O)CCC(=O)Nc2ccc(C(F)(F)F)cc2)c2ncccc2c1` (centres unmarked) [Compound 5f, N′-{4-[(6-Methoxyquinolin-8-yl)amino]pentyl}-N-[4-(trifluoromethyl)phenyl]butanediamide] here?
The melting point was 163 to 165 °C.

For `CC(=O)O[C@@]12CO[C@@H]1C[C@H](O)[C@@]1(C)C(=O)[C@H](O)C3=C(C)[C@@H](OC(=O)[C@H](O)[C@@H](NC(=O)OC(C)(C)C)c4ccccc4)C[C@@](O)([C@@H](OC(=O)c4ccccc4)[C@H]21)C3(C)C` [DXT, docetaxel, reference compound], which IC50 [3, 11] is on record?
The IC50 was 0.75 nM.

And the IC50 [4, 11]?
Its IC50 is 7.66 nM.

And the IC50 [5, 11]?
Its IC50 is 1.22 nM.

What about the IC50 (MM.1S (multiple myeloma); [11]) of the same molecule?
The IC50 was 3.38 nM.

What about the IC50 [6, 11] of the same molecule?
Its IC50 is 1.3 nM.

What about the IC50 [7, 11] of the same molecule?
The IC50 was 5.42 nM.

What about the IC50 [8, 11] of the same molecule?
The IC50 was 1.24 nM.

What about the IC50 [9, 11] of the same molecule?
The IC50 was 1.17 nM.

What about the IC50 [10, 11] of the same molecule?
The IC50 was 0.94 nM.

What does the source list for `COc1cc([C@@H]2c3cc4c(cc3[C@@H](O[C@@H]3O[C@@H]5CO[C@@H](C)O[C@H]5[C@H](O)[C@H]3O)[C@H]3COC(=O)[C@H]23)OCO4)cc(OC)c1O` [EPEG, etoposide, reference compound]?
IC50 ([3]; IncuCyte imaging): 150 nM; IC50 ([4]; IncuCyte imaging): 1350 nM; IC50 ([5]; IncuCyte imaging): 10 nM; IC50 (MM.1S (multiple myeloma); IncuCyte imaging): 970 nM; IC50 ([6]; IncuCyte imaging): 90 nM; IC50 ([7]; IncuCyte imaging): 20 nM; IC50 ([8]; IncuCyte imaging): 30 nM; IC50 ([9]; IncuCyte imaging): 40 nM; IC50 ([10]; IncuCyte imaging): 30 nM

For `NNC(=O)c1ccncc1` [INH, isoniazid, reference compound], which MIC [1] is on record?
Its MIC is 5 µg/mL (≈ 36.5 µM).

And the MIC [2]?
The MIC was 64 µg/mL (≈ 467 µM).

With `CO[C@H]1/C=C/O[C@@]2(C)Oc3c(C)c(O)c4c(O)c(c(/C=N/N5CCN(C)CC5)c(O)c4c3C2=O)NC(=O)/C(C)=C\C=C\[C@H](C)[C@H](O)[C@@H](C)[C@@H](O)[C@@H](C)[C@H](OC(C)=O)[C@@H]1C` [RIF, rifampicin, reference compound] as the molecule, how does the MIC [2] read?
Its MIC is 2.2 µg/mL (≈ 2.67 µM).

With `CN[C@@H]1C[C@H]2O[C@@](C)([C@@H]1OC)n1c3ccccc3c3c4c(c5c6ccccc6n2c5c31)C(=O)NC4` [STS, staurosporine, reference compound] as the molecule, how does the IC50 [8, 11] read?
Its IC50 is 13.1 nM.

And the IC50 [9, 11]?
The IC50 was 3.56 nM.

What about the IC50 [10, 11] of the same molecule?
Its IC50 is 6.96 nM.

Source: article PMC6100582 (Molecules : A Journal of Synthetic Chemistry and Natural …, 2018)
